Earlier results on 6 molecules are cited in publication PMC7467712, “Physical Mechanisms Governing Substituent Effects on Arene–Arene Interactions in a Protein Milieu” (The Journal of Physical Chemistry. B, 2020).

As usually defined, the IC50 is the point on the concentration scale where inhibition reaches its midpoint.

This data set relates to Mus musculus AChE. On the set-up: method as in PMID 23984975. The note with it: 95% confidence interval within parentheses, at least four replicates.
Regarding `CCN(CC)CCNS(=O)(=O)Cc1ccccc1` [AL029], the IC50 was 139 µM. For `CCN(CC)CCNS(=O)(=O)Cc1ccc(C(F)(F)F)cc1` [AL037], the IC50 was 12 µM. Regarding `CCN(CC)CCNS(=O)(=O)Cc1ccc(Cl)cc1` [AL011], the IC50 is 12 µM. On to `CCN(CC)CCNS(=O)(=O)Cc1ccc(F)cc1` [AL036], for which the IC50 is 40 µM. Turning to `CCN(CC)CCNS(=O)(=O)c1cccc(OC)c1` [AL041], the IC50 was 7 µM. Consider `CCN(CC)CCNS(=O)(=O)c1cccc(C(F)(F)F)c1` [AL040], for which the IC50 is 22 µM.
